From the supplement of paper PMC11281043
± gives the standard deviation of the averaged measurements.

What was measured:
Danio rerio embryo/larva [1] = test: BMC spinal defects; higher = less potent; details: max tested concentration (log10 uM): 2; exposure: 6-8 hpf to 5 dpf, scored at 6 dpf
Procedure: (§1)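 Zebrafish embryos (with chorion) were exposed from 6-8 hpf to each PFAS (8-point half-log series, top concentration up to 100 uM, 0.4% DMSO, sealed plates, 26 C; n = 6 embryos per concentration), rinsed at 5 dpf and scored at 6 dpf by two blinded observers for mortality, hatching and malformations. Endpoint scores are the % of living larvae affected (dead larvae excluded; […]). Curves were fitted with tcpl (cutoff 16%), and the BMC is the concentration at a benchmark response of 21.6%.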

Danio rerio embryo/larva [2] = test: BMC swim bladder non-inflation; higher = less potent; details: max tested concentration (log10 uM): 2; exposure: 6-8 hpf to 5 dpf, scored at 6 dpf
Procedure: as §1

Danio rerio embryo/larva [3] = test: BMC any abnormality; max tested concentration (log10 uM): 2; higher = less potent; details: exposure: 6-8 hpf to 5 dpf, scored at 6 dpf
Procedure: as §1

Danio rerio embryo/larva [4] = test: BMC edema; higher = less potent; details: max tested concentration (log10 uM): 2; exposure: 6-8 hpf to 5 dpf, scored at 6 dpf
Procedure: as §1

Danio rerio embryo/larva [5] = test: max % larvae with any abnormality across tested concentrations; max tested concentration (log10 uM): 2; higher = more toxic; extreme values may be limits of the assay; details: exposure: 6-8 hpf to 5 dpf, scored at 6 dpf
Danio rerio embryo/larva [6] = test: BMC abnormal position; higher = less potent; details: max tested concentration (log10 uM): 2; exposure: 6-8 hpf to 5 dpf, scored at 6 dpf
Procedure: as §1

Danio rerio embryo/larva [7] = test: max % larvae unhatched across tested concentrations; max tested concentration (log10 uM): 2; higher = more toxic; details: exposure: 6-8 hpf to 5 dpf, scored at 6 dpf
Danio rerio embryo/larva [8] = test: BMC craniofacial defects; higher = less potent; details: max tested concentration (log10 uM): 2; exposure: 6-8 hpf to 5 dpf, scored at 6 dpf
Procedure: as §1

Danio rerio embryo/larva [9] = test: BMC blood pooling; max tested concentration (log10 uM): 2; higher = less potent; details: exposure: 6-8 hpf to 5 dpf, scored at 6 dpf
Procedure: as §1

Danio rerio embryo/larva [10] = test: max % larvae unhatched across tested concentrations; max tested concentration (log10 uM): 1.60206; higher = more toxic; details: exposure: 6-8 hpf to 5 dpf, scored at 6 dpf
Danio rerio embryo/larva [11] = test: max % larvae dead across tested concentrations; max tested concentration (log10 uM): 1.60206; higher = more toxic; extreme values may be limits of the assay; details: exposure: 6-8 hpf to 5 dpf, scored at 6 dpf
Danio rerio embryo/larva [12] = test: max % larvae with any abnormality across tested concentrations; max tested concentration (log10 uM): 1.60206; higher = more toxic; extreme values may be limits of the assay; details: exposure: 6-8 hpf to 5 dpf, scored at 6 dpf
Danio rerio embryo/larva [13] = test: BMC mortality; max tested concentration (log10 uM): 1.60206; higher = less potent; details: exposure: 6-8 hpf to 5 dpf, scored at 6 dpf
Procedure: as §1

Danio rerio embryo/larva [14] = test: BMC any abnormality; max tested concentration (log10 uM): 1.60206; higher = less potent; details: exposure: 6-8 hpf to 5 dpf, scored at 6 dpf
Procedure: as §1

Danio rerio embryo/larva [15] = test: max % larvae dead across tested concentrations; max tested concentration (log10 uM): 2; higher = more toxic; extreme values may be limits of the assay; details: exposure: 6-8 hpf to 5 dpf, scored at 6 dpf
Danio rerio embryo/larva [16] = test: BMC mortality; max tested concentration (log10 uM): 2; higher = less potent; details: exposure: 6-8 hpf to 5 dpf, scored at 6 dpf
Procedure: as §1

Danio rerio embryo/larva [17] = test: max % larvae with any abnormality across tested concentrations; max tested concentration (log10 uM): 1.30103; higher = more toxic; extreme values may be limits of the assay; details: exposure: 6-8 hpf to 5 dpf, scored at 6 dpf
Danio rerio embryo/larva [18] = test: max % larvae unhatched across tested concentrations; max tested concentration (log10 uM): 1.30103; higher = more toxic; details: exposure: 6-8 hpf to 5 dpf, scored at 6 dpf

SMILES	BMC swim bladder non-inflation (Danio rerio embryo/larva [2]) [µM]	BMC any abnormality (Danio rerio embryo/larva [3]) [µM]	BMC edema (Danio rerio embryo/larva [4]) [µM]	max % larvae (Danio rerio embryo/larva [5]) [%]	max % larvae unhatched across tested concentrations (Danio rerio embryo/larva [7]) [%]	max % larvae unhatched across tested concentrations (Danio rerio embryo/larva [10]) [%]	max % larvae dead across tested concentrations (Danio rerio embryo/larva [11]) [%]	max % larvae (Danio rerio embryo/larva [12]) [%]	also measured
FC(F)(I)C(F)(F)C(F)(F)C(F)(F)C(F)(F)C(F)(F)I [1,6-Diiodoperfluorohexane]	6.49 ± 3.8	5.18 ± 4.7	6.97 ± 5.2	100	0	–	–	–	BMC spinal defects (Danio rerio embryo/larva [1]): 7.34 µM; BMC abnormal position (Danio rerio embryo/larva [6]): 14.9 ± 17 µM; BMC craniofacial defects (Danio rerio embryo/larva [8]): 26.4 ± 3.9 µM; BMC blood pooling (Danio rerio embryo/larva [9]): 14.5 ± 16 µM
CCCCCCCCC(F)(F)C(F)(F)C(F)(F)C(F)(F)C(F)(F)C(F)(F)F [1-(Perfluorohexyl)octane]	–	–	–	–	–	0	0	0	–
FC(F)(F)C(F)(F)C(F)(F)C(F)(F)C(F)(F)C(F)(F)C(F)(F)CCI [1-Iodo-1H,1H,2H,2H-perfluorononane]	–	–	–	–	–	0	16.7	16.7	–
NCC(F)(F)C(F)(F)C(F)(F)C(F)(F)C(F)(F)C(F)(F)C(F)(F)C(F)(F)F [1H,1H-Perfluorononylamine]	–	–	–	–	–	0	66.7	100	BMC mortality (Danio rerio embryo/larva [13]): 29.9 µM; BMC any abnormality (Danio rerio embryo/larva [14]): 27.2 µM
O=S(=O)(OCC(F)(F)F)C(F)(F)C(F)(F)C(F)(F)C(F)(F)F [2,2,2-Trifluoroethyl perfluorobutanesulfonate]	77	29.4	32.7	95.5	0	–	–	–	max % larvae dead across tested concentrations (Danio rerio embryo/larva [15]): 0%; BMC blood pooling (Danio rerio embryo/larva [9]): 35.5 µM
FC(F)(F)C(F)(F)C(F)(F)C(F)(F)C(F)(F)C(F)(F)CCS [2-(Perfluorohexyl)ethanethiol]	–	–	–	–	–	0	0	16.7	–
FC(F)(F)C(F)(F)C(F)(F)C(F)(F)C(F)(F)C(F)(F)C(F)(F)C(F)(F)CCS [2-(Perfluorooctyl)ethanthiol]	–	–	–	–	–	0	0	10.4	–
FC(F)(F)C(F)(C(F)(F)F)C(F)(F)C(F)(F)CC1CO1 (stereo not drawn) [3-(Perfluoro-3-methylbutyl)-1,2-propenoxide]	–	–	–	–	–	0	0	0	–
O=C(O)C(F)(F)C(F)(F)C(F)(F)C(F)(F)C(F)(F)C(F)(F)C(F)(F)C(F)(F)Cl [9-Chloro-perfluorononanoic acid]	6.38	8.75	17.5	100	0	–	–	–	BMC mortality (Danio rerio embryo/larva [16]): 31.1 µM; max % larvae dead across tested concentrations (Danio rerio embryo/larva [15]): 100%; BMC abnormal position (Danio rerio embryo/larva [6]): 80.3 µM; BMC craniofacial defects (Danio rerio embryo/larva [8]): 31.1 µM
OCC(F)(F)C(F)(F)C(F)(F)C(F)(F)C(F)(F)C(F)(F)C(F)(F)C(F)(F)C(F)(F)C(F)(F)C(F)(F)F [11:1 Fluorotelomer alcohol]	–	–	–	–	–	–	–	–	max % larvae (Danio rerio embryo/larva [17]): 8.33%; max % larvae unhatched across tested concentrations (Danio rerio embryo/larva [18]): 0%
O=P(O)(O)CCC(F)(F)C(F)(F)C(F)(F)C(F)(F)C(F)(F)C(F)(F)C(F)(F)C(F)(F)F [((Perfluorooctyl)ethyl)phosphonic acid]	0.92	0.578	1.37	100	0	–	–	–	BMC mortality (Danio rerio embryo/larva [16]): 10.4 µM; max % larvae dead across tested concentrations (Danio rerio embryo/larva [15]): 100%; BMC abnormal position (Danio rerio embryo/larva [6]): 63.6 µM
CC(C)(C)C(=O)CC(=O)C(F)(F)C(F)(F)C(F)(F)F [(Heptafluorobutanoyl)pivaloylmethane]	23	23.4	25.6	100	0	–	–	–	BMC mortality (Danio rerio embryo/larva [16]): 31.2 µM; max % larvae dead across tested concentrations (Danio rerio embryo/larva [15]): 58.3%; BMC abnormal position (Danio rerio embryo/larva [6]): 33.1 µM; BMC craniofacial defects (Danio rerio embryo/larva [8]): 26.6 µM
C=C(C)C(=O)OCC(F)(F)C(F)(F)C(F)(F)C(F)(F)C(F)(F)C(F)(F)C(F)(F)F [(Perfluoroheptyl)methyl methacrylate]	–	–	–	–	–	0	0	0	–
CO[Si](C)(CCC(F)(F)C(F)(F)C(F)(F)C(F)(F)C(F)(F)C(F)(F)F)OC [Dimethoxymethyl((perfluorohexyl)ethyl)silane]	–	–	–	–	–	0	0	0	–
COC(=O)C(F)(F)C(F)(F)OC(F)(C(F)(F)F)C(F)(F)OC(F)=C(F)F (stereo not drawn) [Methyl perfluoro(3-(1-ethenyloxypropan-2-yloxy)propanoate)]	–	–	–	–	–	0	0	8.33	–
